Source: ChEMBL document CHEMBL3885861, “Open TG-GATES”

Organism: Rattus norvegicus
Assay: Open TG-GATES - Regimen: Daily Repeat
Format: toxicity, organism-based, Sprague-Dawley
Parameters: regimen Daily Repeat, gender Male, age 6 weeks
Conditions: in vivo, po, route gavage; for APTT / Bas / Eos / Fbg / Hb / Ht / Lym / MCH / MCHC / MCV / Mono / Neu / PT / Plat / RBC / Ret / WBC: tissue Blood; for ALP / ALT / AST / BUN / CRE / DBIL / GLC / IP / K / Na / PL / RALB / TBIL / TC / TG / TP / gamma-GTP: tissue Plasma
[1] = 100 mg/kg, 72 h, dose level Middle, time 3 day
[2] = 100 mg/kg, […], dose level Middle, time 7 day
[3] = 100 mg/kg, […], dose level Middle, time 14 day
[4] = 100 mg/kg, […], dose level Middle, time 28 day
[5] = 300 mg/kg, 72 h, dose level High, time 3 day
[6] = 300 mg/kg, […], dose level High, time 7 day
[7] = 300 mg/kg, […], dose level High, time 14 day
[8] = 300 mg/kg, […], dose level High, time 28 day

NS(=O)(=O)c1cc(C(=O)O)c(NCc2ccco2)cc1Cl [FUROSEMIDE]
TERMINAL_BW [1]: 230.7 g
APTT [1]: 16.9 s
Bas [1]: 0%
Eos [1]: 0.8%
Fbg [1]: 296.8 mg/dL
Hb [1]: 13.1 g/dL
Ht [1]: 38.3%
Lym [1]: 81.2%
MCH [1]: 21.4 pg
MCHC [1]: 34.1%
MCV [1]: 62.7 fL
Mono [1]: 2.2%
Neu [1]: 14.8%
PT [1]: 15 s
Plat [1]: 123 x10_4/uL
RBC [1]: 611.2 x10_4/ul
Ret [1]: 4.2%
WBC [1]: 107.2 x10_2/uL
ALP [1]: 1617.4 IU/L
ALT [1]: 47.4 IU/L
AST [1]: 68.8 IU/L
BUN [1]: 22.8 mg/dL
CRE [1]: 0.2 mg/dL
DBIL [1]: 0.014 mg/dL
GLC [1]: 176.6 mg/dL
IP [1]: 6.3 mg/dL
K [1]: 3.6 meq/L
Na [1]: 141.4 meq/L
PL [1]: 174 mg/dL
RALB [1]: 2.6 g/dL
TBIL [1]: 0.054 mg/dL
TC [1]: 90 mg/dL
TG [1]: 65 mg/dL
TP [1]: 5.6 g/dL
gamma-GTP [1]: 0.4 IU/L
TERMINAL_BW [2]: 247.4 g
TERMINAL_BW [3]: 311 g
TERMINAL_BW [4]: 380.8 g
APTT [2]: 17.5 s
Bas [2]: 0.4%
Eos [2]: 1.2%
Fbg [2]: 278 mg/dL
Hb [2]: 14.1 g/dL
Ht [2]: 40.4%
Lym [2]: 82%
MCH [2]: 20.8 pg
MCHC [2]: 34.9%
MCV [2]: 59.7 fL
Mono [2]: 1.8%
Neu [2]: 13.8%
PT [2]: 16 s
Plat [2]: 114.3 x10_4/uL
RBC [2]: 678.6 x10_4/ul
Ret [2]: 4.3%
WBC [2]: 110.3 x10_2/uL
APTT [3]: 16.7 s
Bas [3]: 0.6%
Eos [3]: 1%
Fbg [3]: 253.8 mg/dL
Hb [3]: 14.7 g/dL
Ht [3]: 42.1%
Lym [3]: 82.2%
MCH [3]: 20.5 pg
MCHC [3]: 34.9%
MCV [3]: 58.6 fL
Mono [3]: 2%
Neu [3]: 13.2%
PT [3]: 15.7 s
Plat [3]: 108.7 x10_4/uL
RBC [3]: 717.4 x10_4/ul
Ret [3]: 3.8%
WBC [3]: 124.3 x10_2/uL
APTT [4]: 17.5 s
Bas [4]: 1%
Eos [4]: 1%
Fbg [4]: 251.8 mg/dL
Hb [4]: 14.7 g/dL
Ht [4]: 42.7%
Lym [4]: 80%
MCH [4]: 19.2 pg
MCHC [4]: 34.5%
MCV [4]: 55.6 fL
Mono [4]: 1.6%
Neu [4]: 16.2%
PT [4]: 15.7 s
Plat [4]: 98.3 x10_4/uL
RBC [4]: 769.2 x10_4/ul
Ret [4]: 2.5%
WBC [4]: 125.7 x10_2/uL
ALP [2]: 1748.4 IU/L
ALT [2]: 43.8 IU/L
AST [2]: 73.4 IU/L
BUN [2]: 17.8 mg/dL
CRE [2]: 0.2 mg/dL
DBIL [2]: 0.012 mg/dL
GLC [2]: 179 mg/dL
IP [2]: 6.2 mg/dL
K [2]: 3.8 meq/L
Na [2]: 142.4 meq/L
PL [2]: 152 mg/dL
RALB [2]: 2.6 g/dL
TBIL [2]: 0.044 mg/dL
TC [2]: 71.4 mg/dL
TG [2]: 84.4 mg/dL
TP [2]: 5.7 g/dL
gamma-GTP [2]: 0.2 IU/L
ALP [3]: 1743.4 IU/L
ALT [3]: 44.2 IU/L
AST [3]: 78.6 IU/L
BUN [3]: 24.6 mg/dL
CRE [3]: 0.2 mg/dL
DBIL [3]: 0.016 mg/dL
GLC [3]: 177 mg/dL
IP [3]: 6.5 mg/dL
K [3]: 3.7 meq/L
Na [3]: 143.8 meq/L
PL [3]: 160.6 mg/dL
RALB [3]: 2.6 g/dL
TBIL [3]: 0.048 mg/dL
TC [3]: 78.4 mg/dL
TG [3]: 107.6 mg/dL
TP [3]: 5.7 g/dL
gamma-GTP [3]: 0.6 IU/L
ALP [4]: 1073.6 IU/L
ALT [4]: 42.8 IU/L
AST [4]: 70.4 IU/L
BUN [4]: 24 mg/dL
CRE [4]: 0.2 mg/dL
DBIL [4]: 0.02 mg/dL
GLC [4]: 178.2 mg/dL
IP [4]: 5.7 mg/dL
K [4]: 3.7 meq/L
Na [4]: 144.8 meq/L
PL [4]: 143.4 mg/dL
RALB [4]: 2.6 g/dL
TBIL [4]: 0.052 mg/dL
TC [4]: 66 mg/dL
TG [4]: 109.2 mg/dL
TP [4]: 6 g/dL
gamma-GTP [4]: 0.4 IU/L
TERMINAL_BW [5]: 189.1 g
APTT [5]: 20.9 s
Bas [5]: 0.4%
Eos [5]: 0.8%
Fbg [5]: 315.2 mg/dL
Hb [5]: 16.5 g/dL
Ht [5]: 47%
Lym [5]: 80%
MCH [5]: 20.8 pg
MCHC [5]: 35.1%
MCV [5]: 59.3 fL
Mono [5]: 2.6%
Neu [5]: 15.8%
PT [5]: 15.6 s
Plat [5]: 124.2 x10_4/uL
RBC [5]: 794 x10_4/ul
Ret [5]: 2%
WBC [5]: 116.4 x10_2/uL
ALP [5]: 1596.8 IU/L
ALT [5]: 46.2 IU/L
AST [5]: 67.4 IU/L
BUN [5]: 41.8 mg/dL
CRE [5]: 0.2 mg/dL
DBIL [5]: 0.02 mg/dL
GLC [5]: 164.6 mg/dL
IP [5]: 5.7 mg/dL
K [5]: 3 meq/L
Na [5]: 136.4 meq/L
PL [5]: 169.6 mg/dL
RALB [5]: 2.9 g/dL
TBIL [5]: 0.082 mg/dL
TC [5]: 90.2 mg/dL
TG [5]: 48.4 mg/dL
TP [5]: 6.2 g/dL
gamma-GTP [5]: 1.2 IU/L
TERMINAL_BW [6]: 216.8 g
TERMINAL_BW [7]: 243.1 g
TERMINAL_BW [8]: 317.2 g
APTT [6]: 16.2 s
Bas [6]: 0.4%
Eos [6]: 1%
Fbg [6]: 291 mg/dL
Hb [6]: 15 g/dL
Ht [6]: 42.7%
Lym [6]: 81.6%
MCH [6]: 20.8 pg
MCHC [6]: 35.2%
MCV [6]: 59.3 fL
Mono [6]: 2.2%
Neu [6]: 14.4%
PT [6]: 16.2 s
Plat [6]: 97.2 x10_4/uL
RBC [6]: 720.2 x10_4/ul
Ret [6]: 2.4%
WBC [6]: 121.9 x10_2/uL
APTT [7]: 17 s
Bas [7]: 0.5%
Eos [7]: 1%
Fbg [7]: 309.5 mg/dL
Hb [7]: 15.3 g/dL
Ht [7]: 43.5%
Lym [7]: 80%
MCH [7]: 19.9 pg
MCHC [7]: 35.2%
MCV [7]: 56.5 fL
Mono [7]: 2%
Neu [7]: 15.5%
PT [7]: 15.9 s
Plat [7]: 102.8 x10_4/uL
RBC [7]: 769.5 x10_4/ul
Ret [7]: 3.6%
WBC [7]: 113 x10_2/uL
APTT [8]: 16 s
Bas [8]: 1%
Eos [8]: 1.2%
Fbg [8]: 265.8 mg/dL
Hb [8]: 15.6 g/dL
Ht [8]: 45.6%
Lym [8]: 80.8%
MCH [8]: 19.3 pg
MCHC [8]: 34.3%
MCV [8]: 56.5 fL
Mono [8]: 2%
Neu [8]: 15.2%
PT [8]: 16 s
Plat [8]: 91 x10_4/uL
RBC [8]: 806.5 x10_4/ul
Ret [8]: 2%
WBC [8]: 106.7 x10_2/uL
ALP [6]: 1629.6 IU/L
ALT [6]: 50.2 IU/L
AST [6]: 71 IU/L
BUN [6]: 27 mg/dL
CRE [6]: 0.2 mg/dL
DBIL [6]: 0.018 mg/dL
GLC [6]: 169.8 mg/dL
IP [6]: 4.9 mg/dL
K [6]: 3.5 meq/L
Na [6]: 141.8 meq/L
PL [6]: 164.8 mg/dL
RALB [6]: 2.7 g/dL
TBIL [6]: 0.062 mg/dL
TC [6]: 80.6 mg/dL
TG [6]: 67 mg/dL
TP [6]: 5.9 g/dL
gamma-GTP [6]: 0.4 IU/L
ALP [7]: 1713 IU/L
ALT [7]: 48.2 IU/L
AST [7]: 79 IU/L
BUN [7]: 28.8 mg/dL
CRE [7]: 0.2 mg/dL
DBIL [7]: 0.0175 mg/dL
GLC [7]: 174 mg/dL
IP [7]: 5.5 mg/dL
K [7]: 3.4 meq/L
Na [7]: 142.8 meq/L
PL [7]: 171.8 mg/dL
RALB [7]: 2.7 g/dL
TBIL [7]: 0.0575 mg/dL
TC [7]: 83 mg/dL
TG [7]: 84.2 mg/dL
TP [7]: 5.9 g/dL
gamma-GTP [7]: 0.5 IU/L
ALP [8]: 1444.8 IU/L
ALT [8]: 44.2 IU/L
AST [8]: 72.2 IU/L
BUN [8]: 30.8 mg/dL
CRE [8]: 0.2 mg/dL
DBIL [8]: 0.0175 mg/dL
GLC [8]: 174.8 mg/dL
IP [8]: 5.1 mg/dL
K [8]: 3.5 meq/L
Na [8]: 144.5 meq/L
PL [8]: 150.2 mg/dL
RALB [8]: 2.7 g/dL
TBIL [8]: 0.055 mg/dL
TC [8]: 69.8 mg/dL
TG [8]: 92.2 mg/dL
TP [8]: 6 g/dL
gamma-GTP [8]: 0.5 IU/L
